The nature of series [1]: upper aqueous solution pH attained without precipitating zinc hydroxide. Format: physicochemical. To be noted: 1:3 molar ratio of zinc to ligand.
The conditions of series [2]: binding affinity of one ligand with free zinc ion; recorded at pH 7.4.
Protocol: The log Ks1 is the logarithm of the primary Stability Constant which is the binding affinity for a particular ligand with a particular metal ion, in the present invention zinc. […] Since [L] is a function of the solution pH, due to the required initial deprotonation of the ligand, as a reference point, the log Ks1 values described were recorded at pH 7.4.

Regarding `CC(=O)O` [acetic acid], the “pH at which zinc hydroxide precipitates” value is listed as 5.82 in series [1] and “below 6” in series [1] (listed as acetate).

As to `NCC(=O)O` [glycine], in series [1], the “pH at which zinc hydroxide precipitates” value was greater than 10. The “zinc-ligand (log Ks1)” value in series [2] worked out at 5.16.

The values are drawn from US20090202453A1, “Oral Composition” (Hindustan Lever Limited, priority 2004, published 2009).
